species on record: Homo sapiens; test: Minimum effective concentration required to induce interferon (IFN) production in human peripheral blood mononuclear cells (hPBMC); NI = no induction at highest concentration (5.0 ug/mL); assay type: functional; conditions: not given

Row | SMILES | MEC
1 | CC(C)Cn1cnc2c(Cl)nc3ccccc3c21 | No induction
2 | CC(C)Cn1cnc2c(N)nc3ccc(Cl)cc3c21 | No induction
3 | Nc1nc2ccccc2c2c1ncn2CCCc1ccccc1 | No induction
4 | COc1nc2c(N)nc3ccccc3c2n1CC(C)C | No induction
5 | Nc1nc2ccccc2c2c1ncn2-c1ccccc1 | No induction
6 | Cc1cccc2c1nc(N)c1ncn(CC(C)C)c12 | No induction
7 | CNc1nc2ccccc2c2c1ncn2CC(C)C | No induction
8 | CC(C)Cn1cnc2c(O)nc3ccccc3c21 | No induction
9 | Cc1ccc2nc(N)c3ncn(CC(C)C)c3c2c1 | No induction
10 | CCCCCCCCn1cnc2c(N)nc3ccccc3c21 | No induction
11 | CC(C)Cn1cnc2c(N)nc3ccc(N)cc3c21 | No induction
12 | CCCCCCCCCCCCCCCCn1cnc2c(N)nc3ccccc3c21 | No induction
13 | CC(C)Cn1c(C(F)(F)F)nc2c(N)nc3ccccc3c21 | No induction
14 | CSc1nc2ccccc2c2c1ncn2CC(C)C | No induction
15 | CC(C)(C)n1cnc2c(N)nc3ccccc3c21 | No induction
16 | COc1cccc2c1nc(N)c1ncn(CC(C)C)c12 | No induction
17 | CC(C)Cn1c(Oc2ccccc2)nc2c(N)nc3ccccc3c21 | No induction
18 | COc1nc2ccccc2c2c1ncn2CC(C)C | No induction
19 | CC(C)Cn1cnc2c(NC(=O)c3ccccc3)nc3ccccc3c21 | No induction
20 | CC(C)Cn1cnc2cnc3ccccc3c21 | No induction
21 | CC(C)Cn1cnc2c(N)nc3ccc(O)cc3c21 | No induction
22 | CC(C)Cn1cnc2c(N)nc3ccc([N+](=O)[O-])cc3c21 | No induction
23 | COc1ccc2nc(N)c3ncn(CC(C)C)c3c2c1 | No induction
24 | CC(C)Cn1cnc2c(N)nc3ccc(Br)cc3c21 | No induction
25 | Cc1cccc2nc(N)c3ncn(CC(C)C)c3c12 | No induction
26 | CC(C)Cn1c(-c2ccccc2)nc2c(N)nc3ccccc3c21 | No induction

tested on: not listed separately; test: Minimum effective concentration required to induce interferon (IFN) production in human peripheral blood mononuclear cells (hPBMC); assay type: functional; conditions: read-out: MEC

Row | SMILES | minimal effective concentration [µg/mL]
27 | Nc1nc2ccccc2c2c1ncn2CCc1ccccc1 | 0.5
28 | CCn1cnc2c(N)nc3ccccc3c21 | 0.5
29 | CC(C)Cn1c(Cc2ccccc2)nc2c(N)nc3ccccc3c21 | 0.05
30 | CC(O)Cn1cnc2c(N)nc3ccccc3c21 (stereo unspecified) | 0.5
31 | COc1ccc2c(c1)nc(N)c1ncn(CC(C)C)c12 | 1
32 | CCCCCCn1cnc2c(N)nc3ccccc3c21 | 0.5
33 | CCCCCCc1nc2c(N)nc3ccccc3c2n1CC(C)C | 0.5
34 | Nc1nc2ccccc2c2c1ncn2Cc1ccccc1 | 0.1
35 | CCCCCc1nc2c(N)nc3ccccc3c2n1CC(C)C | 0.05
36 | CCCn1cnc2c(N)nc3ccccc3c21 | 0.5
37 | CC(C)Cn1cnc2c(N)nc3ccccc3c21 [IMIQUIMOD] | 0.5
38 | CC(C)Cn1cnc2c(N)nc3c(O)cccc3c21 | 1
39 | CCCCn1cnc2c(N)nc3ccccc3c21 | 0.5
40 | CCCCCCCc1nc2c(N)nc3ccccc3c2n1CC(C)C | 1
41 | CC(C)Cn1c(CCc2ccccc2)nc2c(N)nc3ccccc3c21 | 1
42 | CCCc1nc2c(N)nc3ccccc3c2n1CC(C)C | 0.05
43 | CCc1nc2c(N)nc3ccccc3c2n1CC(C)(C)O | 0.05
44 | Cn1cnc2c(N)nc3ccccc3c21 | 0.5

Row | SMILES | minimal effective concentration [µg/mL]
45 | Nc1nc2ccccc2c2c1ncn2CCO | 0.5
46 | CC(C)n1cnc2c(N)nc3ccccc3c21 | 0.5
47 | CCCCc1nc2c(N)nc3ccccc3c2n1-c1ccccc1 | 0.5
48 | Cc1nc2c(N)nc3ccccc3c2n1CC(C)C | 0.05
49 | CCCCCn1cnc2c(N)nc3ccccc3c21 | 0.5
50 | CC(C)(O)Cn1cnc2c(N)nc3ccccc3c21 | 0.5
51 | CC(C)Cn1c(COc2ccccc2)nc2c(N)nc3ccccc3c21 | 0.1
52 | Nc1nc2ccccc2c2c1ncn2CCCCc1ccccc1 | 0.1
53 | Cc1ccc2c(c1)nc(N)c1ncn(CC(C)C)c12 | 0.5
54 | CCc1nc2c(N)nc3ccccc3c2n1CC(C)C | 0.05
55 | Cc1nc2c(N)nc3ccccc3c2n1CC(C)(C)O | 0.05
56 | CCCCCCCn1cnc2c(N)nc3ccccc3c21 | 0.5
57 | CCCCc1nc2c(N)nc3ccccc3c2n1CC(C)C | 0.01
58 | Nc1[nH]c2ccccc2c2ncnc1-2 | 0.5
59 | Nc1nc2ccccc2c2c1ncn2CC(O)CO (stereo unspecified) | 5
60 | CC(C)Cc1nc2c(N)nc3ccccc3c2n1CC(C)(C)O | 0.01
61 | CC(C)Cn1cnc2c(N)nc3cc(O)ccc3c21 | 0.5
